Experimental data from patent publication EP0812829A1, “Substituted imidazoles as modulators of multi-drug resistance” (ONTOGEN CORPORATION, priority 1996, dated 1997).
Where a name gives a salt, the structure may show the parent alone. Each block holds one compound with its values, some of them ahead of it.

Legend:
[1] = test system: CEM/VLB1000 Cells; test: Enhancement of 3H-vinblastine accumulation; type: cell-based; conditions: midpoint (EC50) of minimum and maximum increase in accumulation of 3H-vinblastine, 3H-vinblastine 550 nM, 3 hours at 37°C, read-out: [^3H]VLB Accumulation (µM) CEM/VLB1000 Cells
Description: Enhancement of ^3H-vinblastine accumulation was also measured in the cell line. Corning Easy-Wash 96 well plates were pretreated with PBS and 1% BSA for 60 minutes and then dried. CEM/VLB1000 cells were seeded at 2 x 10^5, 40 µL volume. Plates were incubated at 37°C for 30-60 minutes prior to use. The reference reversing agent, verapamil, or the compound of the present invention was added to the well followed by addition of media containing ^3H-vinblastine (final concentration = 550 nM). Plates were allowed to incubate for 3 hours at 37°C. Cells were harvested onto pretreated Wallace filtermats B (pretreated overnight with 0.1% polyethyleneimine) using a TomTek harvester-96. After filtering, the filtermats were allowed to dry completely. Meltix B scintillant was then added to the filtermats. The filters were then placed in a 90°C oven for approximately 3-5 minutes and then removed. Scintillant was allowed to solidify on the filtermats. Filtermats were then placed in sample bags and read on a Wallace BetaPlate scintillation counter. The effect of compounds of the present invention in the cytotoxicity potentiation assays and vinblastine (VLB) accumulation assay is given in the Table below: […]

[2] = test system: CEM/VLB1000 Cells; test: Cytotoxicity potentiation assay (alamar blue), vinblastine in CEM/VLB1000 cells; conditions: read-out: Cytotoxicity Potentiation (µM) CEM/VLB1000 Cells; midpoint (EC50) of minimum and maximum cytotoxicity induced by 5 µg/mL vinblastine and compound; 48 hours incubation, alamar blue 24 hours
Description: Multidrug-resistant cell lines are easily obtainable for in vitro determination of drug sensitization by compounds of the present invention. In vitro potentiation of antineoplastic cytotoxicity by the imidazole derivatives of the present invention was measured in both CEM/VLB1000 and SK/VLB1000 cell lines. The multidrug resistant cell lines-were obtained from Dr. Victor Ling, Ontario Cancer Institute, Toronto, Canada. The CEM/VLB 1000 cell line was maintained as a suspension in minimum essential medium supplemented with 10% of fetal bovine serum in a humidied atmosphere of 95% air and 5% CO2 while the SK/VLB 1000 cell line was maintained as adherent cells using the identical medium conditions as the CEM cells. The CEM/VLB 1000 cells were seeded at a density of 5 x 10^4 cells/well in a 96 well microtiter plate while the SK/VLB 1000 cell line was seeded at a density of 2,500 cells/well after trypsinization. Vinblastine (5 µg/mL, for the CEM cells) or Taxol (3 µg/mL, for the SK cells) and compound (0.01 to 50 µM) were added directly to the wells. After an incubation of 48 hours in presence of drug, alamar blue (B. Page et al., Int. J. Oncol. 3: 473-476, 1993) was added (20 µL to the 200 µL cell suspension) for a period of 24 hours after which the fluorescence (excitation = […], emission = […]) was read for each well using a "CytoFluor" microtiter fluorometer plate reader. This assay measures the minimal concentration of compound necessary to enhance the cytotoxicity (EC50) of vinblastine in the MDR cell line.

[3] = test system: SK/VLB1000 Cells; test: Cytotoxicity potentiation assay (alamar blue), Taxol in SK/VLB1000 cells; type: cell-based; conditions: midpoint (EC50) of minimum and maximum cytotoxicity; method: Taxol 3 µg/mL for the SK cells (footnote: 5 µg/mL vinblastine); 48 hours incubation, alamar blue 24 hours
Description: In vitro potentiation of antineoplastic cytotoxicity by the imidazole derivatives of the present invention was measured in both CEM/VLB1000 and SK/VLB1000 cell lines. The multidrug resistant cell lines-were obtained from Dr. Victor Ling, Ontario Cancer Institute, Toronto, Canada. The CEM/VLB 1000 cell line was maintained as a suspension in minimum essential medium supplemented with 10% of fetal bovine serum in a humidied atmosphere of 95% air and 5% CO2 while the SK/VLB 1000 cell line was maintained as adherent cells using the identical medium conditions as the CEM cells. The CEM/VLB 1000 cells were seeded at a density of 5 x 10^4 cells/well in a 96 well microtiter plate while the SK/VLB 1000 cell line was seeded at a density of 2,500 cells/well after trypsinization. Vinblastine (5 µg/mL, for the CEM cells) or Taxol (3 µg/mL, for the SK cells) and compound (0.01 to 50 µM) were added directly to the wells. After an incubation of 48 hours in presence of drug, alamar blue (B. Page et al., Int. J. Oncol. 3: 473-476, 1993) was added (20 µL to the 200 µL cell suspension) for a period of 24 hours after which the fluorescence (excitation = 530 nM, emission = 590 nM) was read for each well using a "CytoFluor" microtiter fluorometer plate reader. This assay measures the minimal concentration of compound necessary to enhance the cytotoxicity (EC50) of vinblastine in the MDR cell line.

- EC50 [1]: 20 µM
SMILES: Oc1ccc(-c2nc(-c3ccccc3)c(-c3ccccc3)n2-c2ccccc2)cc1 [Example 1, 2-(4-hydroxyphenyl)-1,4,5-triphenyl-imidazole trifluoroacetic acid salt]

- EC50 [1]: 2 µM
SMILES: COc1ccc(-c2nc(-c3ccc(O)cc3)n(Cc3ccccc3)c2-c2ccc(OC)cc2)cc1 [Example 2, 1-benzyl-2-(4-hydroxyphenyl)-4,5-di-(4-methoxyphenyl)-imidazole trifluoroacetic acid salt]

SMILES: CN(C)c1ccc(-c2nc(-c3ccc(C(=O)O)cc3)[nH]c2-c2ccc(N(C)C)cc2)cc1 [Example 3, 2-(4-carboxyphenyl)-4,5-di-[4-(dimethylamino)-phenyl]-1(H)-imidazole]
- EC50 [2]: 10 µM

SMILES: COC(=O)c1ccc(-c2nc(-c3ccc(N(C)C)cc3)c(-c3ccc(N(C)C)cc3)[nH]2)cc1 [Example 4, 4,5-di-[4-(dimethylamino)-phenyl]-2-[4-(methoxycarbonyl)-phenyl]-1(H)-imidazole]
- EC50 [2]: 0.3 µM
- EC50 [3]: 1 µM
- EC50 [1]: 5 µM

SMILES: CCCCCCn1c(-c2ccc(C(=O)O)cc2)nc(-c2ccc(N(C)C)cc2)c1-c1ccc(N(C)C)cc1 [Example 5, 2-(4-carboxyphenyl)-4,5-di-[4-(dimethylamino)-phenyl]-1-(n-hexyl)-imidazole]
- EC50 [2]: 3 µM
- EC50 [3]: 10 µM
- EC50 [1]: 12 µM

SMILES: CCCCCCn1c(-c2ccc(C(=O)OC)cc2)nc(-c2ccc(N(C)C)cc2)c1-c1ccc(N(C)C)cc1 [Example 6, 4,5-di-[4-(dimethylamino)-phenyl]-1-(n-hexyl)-2-[4-(methoxycarbonyl)-phenyl]-imidazole]
- EC50 [2]: 5 µM

SMILES: CN(C)c1ccc(-c2nc(-c3ccc(/C=C/C(=O)O)cc3)[nH]c2-c2ccc(N(C)C)cc2)cc1 [Example 7, 2-[4-(trans-2-carboxyethenyl)-phenyl] -4,5-di-[4-(dimethylamino)-phenyl]-1(H)-imidazole]
- EC50 [2]: 10 µM

SMILES: COC(=O)C=Cc1ccc(-c2nc(-c3ccc(N(C)C)cc3)c(-c3ccc(N(C)C)cc3)[nH]2)cc1 [Example 8, 4,5-di-[4-(dimethylamino)-phenyl]-2-{4-[trans-(2-methoxycarbonyl)-ethenyl]-phenyl}-1(H)-imidazole]
- EC50 [2]: 0.3 µM
- EC50 [3]: 0.3 µM
- EC50 [1]: 5 µM

SMILES: CN(C)c1ccc(-c2nc(-c3ccc(O)cc3)[nH]c2-c2ccc(N(C)C)cc2)cc1 [Example 9, 4,5-di-[4-(dimethylamino)-phenyl]-2-(4-hydroxyphenyl)-1(H)-imidazole]
- EC50 [2]: 10 µM
- EC50 [3]: 10 µM
- EC50 [1]: 20 µM

SMILES: CN(C)c1ccc(-c2nc(-c3ccc(O)cc3)n(CCc3ccccc3)c2-c2ccc(N(C)C)cc2)cc1 [Example 10, 4,5-di-[4-(dimethylamino)-phenyl]-2-(4-hydroxyphenyl)-1-(2-phenylethyl)-imidazole]
- EC50 [2]: 2 µM
- EC50 [1]: 10 µM

SMILES: CN(C)c1ccc(-c2nc(-c3ccc(C(=O)O)cc3)n(CCc3ccccc3)c2-c2ccc(N(C)C)cc2)cc1 [Example 11, 2-(4-carboxyphenyl)-4,5-di-[4-(dimethylamino)-phenyl]-1-(2-phenylethyl)-imidazole]
- EC50 [2]: 10 µM

SMILES: CN(C)c1ccc(-c2nc(-c3ccc(/C=C/C(=O)O)cc3)n(CCc3ccccc3)c2-c2ccc(N(C)C)cc2)cc1 [Example 12, 2-[4-(trans-2-carboxyethenyl)-phenyl]-4,5-di-[4-(dimethylamino)-phenyl]-1-(2-phenylethyl)-imidazole]
- EC50 [2]: 10 µM

SMILES: COC(=O)/C=C/c1ccc(-c2nc(-c3ccc(OC)cc3)c(-c3ccc(OC)cc3)n2CCCCCC(=O)OC)cc1 [Example 13, 4,5-di-(4-methoxyphenyl)-2-{4-[trans-(2-methoxycarbonyl)-ethenyl]-phenyl}-1-[5-(methoxycarbonyl)-n-pentyl)-imidazole]
- EC50 [2]: 0.6 µM

SMILES: COc1ccc(-c2nc(-c3ccc(/C=C/c4ccccc4)cc3)n(CCCn3ccnc3)c2-c2ccc(OC)cc2)cc1 [Example 14, 2-(trans-4-stilbenyl)-1-[3-(imidazol-1-yl)-n-propyl]-4,5-di-(4-methoxyphenyl)-imidazole]
- EC50 [2]: 0.4 µM
- EC50 [3]: 1 µM

SMILES: COC(=O)/C=C/c1ccc(-c2nc(-c3ccc(N(C)C)cc3)c(-c3ccc(N(C)C)cc3)n2CCCCCC(=O)OC)cc1 [Example 15, 4,5-di-[4-(dimethylamino)-phenyl]-2-{4-[trans-(2-methoxycarbonyl)-ethenyl]-phenyl}-1-[5-(methoxycarbonyl)-n-pentyl-]-imidazole]
- EC50 [2]: 0.6 µM
- EC50 [3]: 5 µM

SMILES: CCCCCCn1c(-c2ccc(OCCCN(C)C)cc2)nc(-c2ccc(OC)cc2)c1-c1ccc(OC)cc1 [Example 16, 4,5-di-(4-methoxyphenyl)-2-{4-[3-(dimethylamino)-propyloxy]-phenyl}-1-(n-hexyl)-imidazole]
- EC50 [2]: 2 µM
- EC50 [3]: 10 µM
